The values that follow come from patent publication US11168093B2, “Thienopyridine inhibitors of RIPK2” (Celgene Corporation, priority 2018, dated 2021).

This experiment deals with RIPK2 enzyme (Homo sapiens (Human), UniProt O43353). Put plainly: RIPK2 inhibition assay, TR-FRET LanthaScreen Tracer 199 screening assay. Type of experiment: binding. Conditions: 5 nM RIPK2 enzyme, Tracer 199 at 50 nM, Eu-anti-His Antibody at 2 nM, 1 hour incubation. The procedure: All data was collected using a standard TR-FRET screening assay: LanthaScreen Tracer 199 at 50 nM, Eu-anti-His Antibody at 2 nM, 5 nM RIPK2 enzyme, and 1× Kinase Reaction Buffer. There was a 1 hour incubation prior to read. TR-FRET signal of the interaction (340Ex/665Em/615Em) was read at room temperature with standard setting. Background was subtracted of wells containing no enzyme. Percent inhibition was based on uninhibited controls log (inhibitor) vs. response. Variable slope equation was used with no constraints: Log Y=Bottom+(Top−Bottom)/(1+10^((Log IC50−X)*Hill Slope)).
RIPK2 enzyme, sequence (O43353 whole entry): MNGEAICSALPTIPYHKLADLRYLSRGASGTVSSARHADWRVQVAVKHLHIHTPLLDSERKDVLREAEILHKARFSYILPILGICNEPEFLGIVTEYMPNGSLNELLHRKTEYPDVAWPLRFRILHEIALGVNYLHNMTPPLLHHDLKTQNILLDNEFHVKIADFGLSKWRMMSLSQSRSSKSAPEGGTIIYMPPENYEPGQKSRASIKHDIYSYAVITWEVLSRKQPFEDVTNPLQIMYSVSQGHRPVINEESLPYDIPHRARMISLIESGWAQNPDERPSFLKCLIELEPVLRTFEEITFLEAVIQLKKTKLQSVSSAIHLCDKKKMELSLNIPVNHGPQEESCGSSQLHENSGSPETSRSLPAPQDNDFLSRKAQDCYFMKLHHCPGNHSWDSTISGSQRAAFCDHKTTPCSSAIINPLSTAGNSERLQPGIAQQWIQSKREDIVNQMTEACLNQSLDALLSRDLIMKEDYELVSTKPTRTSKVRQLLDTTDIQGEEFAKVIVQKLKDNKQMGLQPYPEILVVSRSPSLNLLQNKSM
The compound numbers correspond to the compound numbers above.
In general terms: Time-resolved FRET reads energy transfer from a long-lived donor to a nearby acceptor.
As a reminder, the IC50 is the concentration that gives 50% inhibition. Read a low IC50 as higher potency. Molecule `C1=C(c2cc3c(Nc4ccc5scnc5c4)ccnc3s2)C2(CCOCC2)NC1` [Example 46, N-(2-(8-oxa-1-azaspiro[4.5]dec-3-en-4-yl)thieno[2,3-b]pyridin-4-yl)benzo[d]thiazol-5-amine] returned an IC50 not above 10 nM. With `CC1C(c2cc3c(Nc4ccc5scnc5c4)ccnc3s2)CCCN1C` (stereo not shown) [Example 4, N-(2-(1,2-dimethylpiperidin-3-yl)thieno[2,3-b]pyridin-4-yl)benzo[d]thiazol-5-amine], the IC50 is not above 10 nM. The molecule `CC1C(c2cc3c(Nc4ccc5scnc5c4)c(F)cnc3s2)CCCN1C` (single isomer, unassigned) [Example 120d, N-(2-(1,2-dimethylpiperidin-3-yl)-5-fluorothieno[2,3-b]pyridin-4-yl)benzo[d]-thiazol-5-amine] returned an IC50 not below 50 nM. Turning to `CCN1CCC[C@H](c2cc3c(Nc4c(F)cc5scnc5c4F)ccnc3s2)[C@@H]1C` [Example 74b, N-(2-((2S,3S)-1-ethyl-2-methylpiperidin-3-yl)thieno[2,3-b]pyridin-4-yl)-4,6-difluorobenzo[d]thiazol-5-amine], the IC50 was not above 10 nM.

As to `CN1CCC(c2cc3c(Nc4cc5ncsc5cc4F)ccnc3s2)C12CCOC2` (stereo not shown) [Example 82, 6-fluoro-N-(2-(1-methyl-7-oxa-1-azaspiro[4.4]nonan-4-yl)thieno[2,3-b]pyridin-4-yl)benzo[d]thiazol-5-amine], the IC50 is not below 50 nM.

`CC1NCCC1c1cc2c(Nc3c(F)cc4scnc4c3F)ccnc2s1` (stereo not shown) [Example 93, 4,6-difluoro-N-(2-(2-methylpyrrolidin-3-yl)thieno[2,3-b]pyridin-4-yl)benzo[d]thiazol-5-amine] yielded an IC50 not above 10 nM. In turn, `CC1C(c2cc3c(Nc4ccc5scnc5c4F)c(F)cnc3s2)CCCN1C` (single isomer, unassigned) [Example 125c, N-(2-(1,2-dimethylpiperidin-3-yl)-5-fluorothieno[2,3-b]pyridin-4-yl)-4-fluorobenzo[d]thiazol-5-amine] displayed an IC50 not above 10 nM.

For the molecule `CC1NCCCC1c1cc2c(Nc3cc4ncsc4cc3F)c(F)cnc2s1` (stereo not shown) [Example 122a, 6-fluoro-N-(5-fluoro-2-(2-methylpiperidin-3-yl)thieno[2,3-b]pyridin-4-yl) benzo[d]thiazol-5-amine], the half-maximal inhibitory concentration (IC50) is not below 50 nM. Turning to `CCN1CCC(c2cc3c(Nc4cc5ncsc5cc4F)ccnc3s2)C1C` (stereo not shown) [Example 76, N-(2-(1-ethyl-2-methylpyrrolidin-3-yl)thieno[2,3-b]pyridin-4-yl)-6-fluorobenzo[d]thiazol-5-amine], the IC50 is 10 to 20 nM. Molecule `C[C@H]1[C@H](c2cc3c(Nc4c(F)cc5scnc5c4F)ccnc3s2)CCCN1C` [Example 71a, N-(2-((2S,3R)-1,2-dimethylpiperidin-3-yl)thieno[2,3-b]pyridin-4-yl)-4,6-difluorobenzo[d]thiazol-5-amine] showed an IC50 not above 10 nM. Take `CCN1CCC(c2cc3c(Nc4c(F)cc5scnc5c4F)ccnc3s2)C12CCOCC2` (stereo not shown) [Example 104, N-(2-(1-ethyl-8-oxa-1-azaspiro[4.5]decan-4-yl)thieno[2,3-b]pyridin-4-yl)-4,6-difluorobenzo[d]thiazol-5-amine]: the IC50 was not below 50 nM.

`CC1NCC=C1c1cc2c(Nc3ccc4scnc4c3)ccnc2s1` (stereo not shown) [Example 25, N-(2-(2-methyl-2,5-dihydro-1H-pyrrol-3-yl)thieno[2,3-b]pyridin-4-yl)benzo[d]thiazol-5-amine] yielded an IC50 not above 10 nM. The figure for `C[C@H]1[C@@H](c2cc3c(Nc4ccc5scnc5c4)ccnc3s2)CCCN1C` [Example 4d, N-(2-(1,2-dimethylpiperidin-3-yl)thieno[2,3-b]pyridin-4-yl)benzo[d]thiazol-5-amine] is not above 10 nM.

For `CC1NCCCC1c1cc2c(Nc3c(F)cc4scnc4c3F)c(F)cnc2s1` (stereo not shown) [Example 126a, 4,6-difluoro-N-(5-fluoro-2-(2-methylpiperidin-3-yl)thieno[2,3-b]pyridin-4-yl)benzo[d]thiazol-5-amine], the IC50 was not above 10 nM. The figure for `C[C@H]1NCCC=C1c1cc2c(Nc3cc4ncsc4cc3F)ccnc2s1` [Example 49a, 6-fluoro-N-(2-(2-methyl-1,2,5,6-tetrahydropyridin-3-yl)thieno[2,3-b]pyridin-4-yl)benzo[d]thiazol-5-amine] is 10 to 20 nM; for `CC1C(c2cc3c(Nc4ccc5scnc5c4F)c(F)cnc3s2)CCCN1C` (single isomer, unassigned) [Example 125b, N-(2-(1,2-dimethylpiperidin-3-yl)-5-fluorothieno[2,3-b]pyridin-4-yl)-4-fluorobenzo[d]thiazol-5-amine] it is 10 to 20 nM. For the molecule `Fc1cc2scnc2c(F)c1Nc1ccnc2sc(C3CCNC34CCOCC4)cc12` (stereo not shown) [Example 102, N-(2-(8-oxa-1-azaspiro[4.5]decan-4-yl)thieno[2,3-b]pyridin-4-yl)-4,6-difluorobenzo[d]thiazol-5-amine], the IC50 is 10 to 20 nM.

In turn, `CCN1CCC[C@H](c2cc3c(Nc4ccc5scnc5c4F)ccnc3s2)[C@@H]1C` [Example 65, N-(2-((2S,3S)-1-ethyl-2-methylpiperidin-3-yl)thieno[2,3-b]pyridin-4-yl)-4-fluorobenzo[d]thiazol-5-amine] gave an IC50 not above 10 nM.

Molecule `C1=C(c2cc3c(Nc4ccc5scnc5c4)ccnc3s2)CNCCC1` [Example 112, N-(2-(2,5,6,7-tetrahydro-1H-azepin-3-yl)thieno[2,3-b]pyridin-4-yl)benzo[d]thiazol-5-amine] yielded an IC50 not above 10 nM. `CCN1CC=C(c2cc3c(Nc4ccc5scnc5c4)ccnc3s2)C12CCOCC2` [Example 47, N-(2-(1-ethyl-8-oxa-1-azaspiro[4.5]dec-3-en-4-yl)thieno[2,3-b]pyridin-4-yl)benzo[d]thiazol-5-amine] had an IC50 not above 10 nM. On to `COCCN1CCCC(c2cc3c(Nc4ccc5scnc5c4)ccnc3s2)C1C` (stereo not shown) [Example 13, N-(2-(1-(2-methoxyethyl)-2-methylpiperidin-3-yl)thieno[2,3-b]pyridin-4-yl)benzo[d]thiazol-5-amine], for which the IC50 was not above 10 nM. On to `CC1C(c2cc3c(Nc4ccc5scnc5c4)ccnc3s2)CCN1CCO` (stereo not shown) [Example 31, 2-(3-(4-(benzo[d]thiazol-5-ylamino)thieno[2,3-b]pyridin-2-yl)-2-methylpyrrolidin-1-yl)ethan-1-ol], for which the IC50 was not above 10 nM. As for `CCN1CCC(c2cc3c(Nc4cc5ncsc5cc4F)ccnc3s2)C12CCOC2` (stereo not shown) [Example 83, N-(2-(1-ethyl-7-oxa-1-azaspiro[4.4]nonan-4-yl)thieno[2,3-b]pyridin-4-yl)-6-fluorobenzo[d]thiazol-5-amine], the figure is not below 50 nM; as for `CC1NCCCC1c1cc2c(Nc3ccc4scnc4c3)c(F)cnc2s1` (single isomer, unassigned) [Example 119c, N-(5-fluoro-2-(2-methylpiperidin-3-yl)thieno[2,3-b]pyridin-4-yl)benzo[d]thiazol-5-amine], not above 10 nM; as for `CC(=O)N1CCC=C(c2cc3c(Nc4ccc5scnc5c4)ccnc3s2)CC1` [Example 107, 1-(4-(4-(benzo[d]thiazol-5-ylamino)thieno[2,3-b]pyridin-2-yl)-2,3,6,7-tetrahydro-1H-azepin-1-yl)ethan-1-one], not above 10 nM. `CN1CCCC(c2cc3c(Nc4ccc5scnc5c4)ccnc3s2)CC1` (stereo not shown) [Example 109, N-(2-(1-methylazepan-4-yl)thieno[2,3-b]pyridin-4-yl)benzo[d]thiazol-5-amine]: the IC50 was not above 10 nM.

`CC(=O)N1CCCC(c2cc3c(Nc4ccc5scnc5c4)ccnc3s2)C1C` (stereo not shown) [Example 10, 1-(3-(4-(benzo[d]thiazol-5-ylamino)thieno[2,3-b]pyridin-2-yl)-2-methylpiperidin-1-yl)ethan-1-one] had an IC50 not above 10 nM. In turn, `c1cc(Nc2ccc3scnc3c2)c2cc(C3CCCNCC3)sc2n1` (stereo not shown) [Example 108, N-(2-(azepan-4-yl)thieno[2,3-b]pyridin-4-yl)benzo[d]thiazol-5-amine] returned an IC50 not above 10 nM. Consider `COCCN1CCC=C(c2cc3c(Nc4ccc5scnc5c4)ccnc3s2)C1C` (stereo not shown) [Example 12, N-(2-(1-(2-methoxyethyl)-2-methyl-1,2,5,6-tetrahydropyridin-3-yl)thieno[2,3-b]pyridin-4-yl)benzo[d]thiazol-5-amine], for which the concentration for half-maximal inhibition (IC50) is not above 10 nM. `CC1(C)NCCC1c1cc2c(Nc3cc4ncsc4cc3F)ccnc2s1` (stereo not shown) [Example 78a, N-(2-(2,2-dimethylpyrrolidin-3-yl)thieno[2,3-b]pyridin-4-yl)-6-fluorobenzo[d]thiazol-5-amine] registered an IC50 not above 10 nM.

With `CCN1CCC=C(c2cc3c(Nc4cc5ncsc5cc4F)ccnc3s2)[C@H]1C` [Example 52a, N-(2-(1-ethyl-2-methyl-1,2,5,6-tetrahydropyridin-3-yl)thieno[2,3-b]pyridin-4-yl)-6-fluorobenzo[d]thiazol-5-amine], the IC50 lay in the range of 10 to 20 nM.

With `C[C@H]1[C@@H](c2cc3c(Nc4c(F)cc5scnc5c4F)ccnc3s2)CCCN1C` [Example 71b, N-(2-((2S,3S)-1,2-dimethylpiperidin-3-yl)thieno[2,3-b]pyridin-4-yl)-4,6-difluorobenzo[d]thiazol-5-amine], the IC50 was not above 10 nM.

In turn, `C[C@H]1NCCC[C@H]1c1cc2c(Nc3ccc4scnc4c3F)ccnc2s1` [Example 56b, 4-fluoro-N-(2-((2R,3R)-2-methyl-piperidin-3-yl)thieno[2,3-b]pyridin-4-yl)benzo[d]thiazol-5-amine] had an IC50 not above 10 nM. In the case of `CC1C(c2cc3c(Nc4ccc5scnc5c4)c(F)cnc3s2)CCCN1C` (single isomer, unassigned) [Example 120b, N-(2-(1,2-dimethylpiperidin-3-yl)-5-fluorothieno[2,3-b]pyridin-4-yl)benzo[d]-thiazol-5-amine], the 50% inhibitory concentration (IC50) was not above 10 nM.
